These results are taken from US12528786B2, “Plasma kallikrein inhibitors” (Merck Sharp & Dohme LLC, priority 2020, dated 2026).

As a reminder, the IC50 is the midpoint of a concentration-inhibition curve. Low values mean higher potency, high ones lower potency.

In this assay the target is T1, Human plasma kallikrein (Homo sapiens, UniProt P03952).
T1 construct: yields a heavy chain (371 amino acids) and a light chain (248 amino acids); purchased Enzyme Research Laboratories
T1 sequence (P03952 391-638 limits assumed): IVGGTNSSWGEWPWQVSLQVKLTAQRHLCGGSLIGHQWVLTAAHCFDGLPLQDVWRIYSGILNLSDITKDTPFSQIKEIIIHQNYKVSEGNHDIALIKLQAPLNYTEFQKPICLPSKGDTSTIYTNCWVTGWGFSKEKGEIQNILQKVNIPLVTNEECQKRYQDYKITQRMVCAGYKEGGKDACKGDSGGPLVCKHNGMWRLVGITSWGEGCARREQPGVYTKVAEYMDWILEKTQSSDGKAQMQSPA
T1 sequence (P03952 20-390 partner limits assumed): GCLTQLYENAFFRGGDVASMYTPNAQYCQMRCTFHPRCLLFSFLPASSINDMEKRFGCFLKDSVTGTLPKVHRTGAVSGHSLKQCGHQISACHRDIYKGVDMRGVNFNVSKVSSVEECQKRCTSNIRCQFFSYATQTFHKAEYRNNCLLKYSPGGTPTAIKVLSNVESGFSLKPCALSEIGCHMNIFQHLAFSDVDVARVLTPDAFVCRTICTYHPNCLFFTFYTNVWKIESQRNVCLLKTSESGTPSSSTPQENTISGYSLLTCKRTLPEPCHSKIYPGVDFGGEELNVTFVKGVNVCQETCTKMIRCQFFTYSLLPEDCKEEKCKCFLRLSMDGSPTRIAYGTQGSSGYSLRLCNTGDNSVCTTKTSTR
The assay is described as follows: Kallikrein Assay (fluorogenic substrate hydrolysis, AFC release). The assay is classed as biochemical. The note with it: purified Human plasma kallikrein 0.5 nM; substrate Acetyl-K—P—R-AFC 100 mM; 50 mM HEPES pH 7.4. The essentials: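 Purified human plasma kallikrein (0.5 nM final) with Acetyl-K-P-R-AFC substrate (final ≤0.2 Km) in 50 mM HEPES pH 7.4, 150 mM NaCl, 5 mM CaCl2, 0.1% PEG 8000, after enzyme–inhibitor equilibration; room temperature or 37° C. AFC fluorescence (405 Ex/510 Em nm) under linear conditions; IC50 by four-parameter fit, Ki via Cheng-Prusoff.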
On to `Cc1nc(N2C[C@H]3C[C@H]3C2=O)ncc1C(C)n1cc(C(=O)N[C@H]2C[C@@H](c3cc(Cl)ccc3C#N)C2)nn1` (single isomer, unassigned) [Example 81, N-((cis)-3-(5-chloro-2-cyanophenyl)cyclobutyl)-1-((S or R)-1-(4-methyl-2-((1R,5S)-2-oxo-3-azabicyclo[3.1.0]hexan-3-yl)pyrimidin-5-yl)ethyl)-1H-1,2,3-triazole-4-carboxamide], for which the IC50 was 1.9 nM.

As to `Cc1nc(N2C[C@H]3C[C@H]3C2=O)ccc1C(C)n1cc(C(=O)N[C@H]2C[C@@H](c3cc(Cl)ccc3C#N)C2)nn1` (single isomer, unassigned) [Example 95, N-((cis)-3-(5-chloro-2-cyanophenyl)cyclobutyl)-1-((S or R)-1-(2-methyl-6-((1R,5S)-2-oxo-3-azabicyclo[3.1.0]hexan-3-yl)pyridin-3-yl)ethyl)-1H-1,2,3-triazole-4-carboxamide], the half-inhibitory concentration (IC50) amounted to 10.7 nM.

Molecule `N#Cc1ccc(Cl)cc1[C@H]1C[C@@H](NC(=O)c2cnn(Cc3cnc(N4C[C@@H]5C[C@@H]5C4=O)nc3)c2)C1` (stereo in doubt) [Example 1, N-((cis)-3-(5-chloro-2-cyanophenyl)cyclobutyl)-1-((2-((1S,5R)-2-oxo-3-azabicyclo[3.1.0]hexan-3-yl)pyrimidin-5-yl)methyl)-1H-pyrazole-4-carboxamide] returned a concentration for half-maximal inhibition (IC50) of 8.6 nM.

For `Cc1c(C(C)n2cc(C(=O)N[C@H]3C[C@@H](c4cc(Cl)ccc4C#N)C3)cn2)nnc(N2C[C@H]3C[C@H]3C2=O)c1C` (single isomer, unassigned) [Example 42, N-((cis)-3-(5-chloro-2-cyanophenyl)cyclobutyl)-1-((S or R)-1-(4,5-dimethyl-6-((1R,5S)-2-oxo-3-azabicyclo[3.1.0]hexan-3-yl)pyridazin-3-yl)ethyl)-1H-pyrazole-4-carboxamide], the half-inhibitory concentration (IC50) stood at 0.3 nM.

`COc1cc(C(C)n2cc(C(=O)N[C@H]3C[C@@](C)(c4cc(Cl)ccc4C#N)C3)nn2)cnc1N1C[C@H]2C[C@H]2C1=O` (single isomer, unassigned) [Example 105, N-((cis)-3-(5-chloro-2-cyanophenyl)-3-methylcyclobutyl)-1-((R or S)-1-(5-methoxy-6-((1R,5S)-2-oxo-3-azabicyclo[3.1.0]hexan-3-yl)pyridin-3-yl)ethyl)-1H-1,2,3-triazole-4-carboxamide] showed an IC50 of 0.6 nM.

In the case of `Cc1nn(C(C)c2cnc(N3C[C@H]4C[C@H]4C3=O)nc2)cc1C(=O)N[C@H]1C[C@@H](c2cc(Cl)ccc2C#N)C1` (single isomer, unassigned) [Example 16, N-((cis)-3-(5-chloro-2-cyanophenyl)cyclobutyl)-3-methyl-1-((S or R)-1-(2-((1R,5S)-2-oxo-3-azabicyclo[3.1.0]hexan-3-yl)pyrimidin-5-yl)ethyl)-1H-pyrazole-4-carboxamide], the IC50 came out at 6.7 nM.

On to `Cc1nc(N2C[C@H]3C[C@H]3C2=O)ncc1C(C)n1cc(C(=O)NC2CC(C)(c3cc(Cl)ccc3C#N)C2)nn1` (single isomer, unassigned) [Example 82, N-((cis)-3-(5-chloro-2-cyanophenyl)-3-methylcyclobutyl)-1-((R or S)-1-(4-methyl-2-((1R,5S)-2-oxo-3-azabicyclo[3.1.0]hexan-3-yl)pyrimidin-5-yl)ethyl)-1H-1,2,3-triazole-4-carboxamide], for which it took 0.6 nM to reach half-maximal inhibition (IC50).

As for `N#Cc1ccc(Cl)cc1[C@H]1C[C@@H](NC(=O)c2cn(C(CO)c3ccc(N4C[C@H]5C[C@H]5C4=O)nc3)nn2)C1` (single isomer, unassigned) [Example 154], the IC50 was 29.6 nM.

On to `COc1cc(C(C)n2cc(C(=O)N[C@H]3C[C@@H](c4cc(Cl)ccc4C#N)C3)nn2)cnc1N1C[C@H]2C[C@H]2C1=O` (mixture of isomers) [Example 100, N-((cis)-3-(5-chloro-2-cyanophenyl)cyclobutyl)-1-((R and S)-1-(5-methoxy-6-((1R,5S)-2-oxo-3-azabicyclo[3.1.0]hexan-3-yl)pyridin-3-yl)ethyl)-1H-1,2,3-triazole-4-carboxamide], for which half-maximal inhibition (IC50) required 2 nM.

`[2H]C1(NC(=O)c2cn([C@@H](C)c3cnc(N4C[C@H]5C[C@H]5C4=O)cc3C)nn2)CC(C)(c2cc(Cl)ccc2C#N)C1` (single isomer, unassigned) [Example 145, N-((cis or trans)-3-(5-chloro-2-cyanophenyl)-3-methylcyclobutyl-1-d)-1-((S)-1-(4-methyl-6-((1R,5S)-2-oxo-3-azabicyclo[3.1.0]hexan-3-yl)pyridin-3-yl)ethyl)-1H-1,2,3-triazole-4-carboxamide] displayed a half-maximal inhibitory concentration (IC50) of 126 nM.

`CC(c1cnc(N2C[C@H]3C[C@H]3C2=O)c(N)c1)n1cc(C(=O)N[C@H]2C[C@@H](c3cc(Cl)ccc3C#N)C2)nn1` (single isomer, unassigned) [Example 107, 1-((R or S)-1-(5-amino-6-((1R,5S)-2-oxo-3-azabicyclo[3.1.0]hexan-3-yl)pyridin-3-yl)ethyl)-N-((cis)-3-(5-chloro-2-cyanophenyl)cyclobutyl)-1H-1,2,3-triazole-4-carboxamide] displayed an IC50 of 4.8 nM.

The molecule `Cc1cc(N2C[C@H]3C[C@H]3C2=O)ncc1C(C)n1cc(C(=O)N[C@H]2C[C@@](C)(c3cc(Cl)ccc3C#N)C2)nn1` (single isomer, unassigned) [Example 65, N-((cis)-3-(5-chloro-2-cyanophenyl)-3-methylcyclobutyl)-1-((S or R)-1-(4-methyl-6-((1R,5S)-2-oxo-3-azabicyclo[3.1.0]hexan-3-yl)pyridin-3-yl)ethyl)-1H-1,2,3-triazole-4-carboxamide] returned an IC50 of 0.3 nM.

`Cc1c([C@H](C)n2cc(C(=O)N[C@H]3C[C@@H](c4cc(Cl)ccc4C#N)C3)nn2)cnc(N2C[C@H]3C[C@H]3C2=O)c1O` (relative stereo) [Example 164, N-((cis)-3-(5-chloro-2-cyanophenyl)cyclobutyl)-1-((S)-1-(5-hydroxy-4-methyl-6-((1R,5S)-2-oxo-3-azabicyclo[3.1.0]hexan-3-yl)pyridin-3-yl)ethyl)-1H-12,3-triazole-4-carboxamide] returned a half-inhibitory concentration (IC50) of 46.7 nM.

`Cc1nc(N2C[C@H]3C[C@H]3C2=O)ncc1C(C)n1cc(C(=O)N[C@H]2C[C@@H](c3cc(Cl)ccc3C#N)C2)nn1` (single isomer, unassigned) [Example 80, N-((cis)-3-(5-chloro-2-cyanophenyl)cyclobutyl)-1-((R or S)-1-(4-methyl-2-((1R,5S)-2-oxo-3-azabicyclo[3.1.0]hexan-3-yl)pyrimidin-5-yl)ethyl)-1H-1,2,3-triazole-4-carboxamide] registered a half-maximal inhibitory concentration (IC50) of 105 nM.

For `Cc1c([C@H](C)n2cc(C(=O)N[C@H]3C[C@@H](c4cc(Cl)ccc4C#N)C3)nn2)nc(N2C[C@H]3C[C@H]3C2=O)n1C` (single isomer, unassigned) [Example 162], half-maximal inhibition (IC50) required 3.7 nM.

`Cc1cc(N2C[C@H]3C[C@H]3C2=O)ncc1C(C)n1cc(C(=O)NC2CC(c3cc(Cl)ccc3C#N)C2)c([C@H](C)O)n1` (stereo in doubt) [Example 172, N-((cis)-3-(5-chloro-2-cyanophenyl)cyclobutyl)-3-((S)-1-hydroxyethyl)-1-((S)-1-(4-methyl-6-((1R,5S)-2-oxo-3-azabicyclo[3.1.0]hexan-3-yl)pyridin-3-yl)ethyl)-1H-pyrazole-4-carboxamide] returned an IC50 of 11.1 nM.
